Laboratory results as given in article PMC9268013, “Design, Synthesis, and Biological Evaluation of N14-Amino Acid-Substituted Tetrandrine Derivatives as Potential Antitumor Agents against Human Colorectal Cancer” (Molecules, 2022).

Tests used:
caspase-3 = assay: Western blot, caspase-3 in HCT-15 cells; type: cell-based, human; settings: HCT-15, 0.625, 1.25, and 2.5 μM, p < 0.05, no concentration dependence
Experimental: (§1) The protein levels in HCT-15 cells were evaluated via Western blot analysis. The cells were cultured in dishes (10^7 cells per dish) and incubated overnight at 37 °C, 0.625, 1.25, 2.5, and 5 μM of 16 was added in triplicate after 24 h of incubation. Then, the cells were harvested and lysed in Laemmli buffer (glycerol, 1M TRIS pH 6.8, 1% SDS, MQ H2O and 20% β-mercaptoethanol). The samples were boiled for 5 min at 95 °C, and the protein content was determined using a BCA kit. Equal amounts of 30 μg of sample were placed on a Tris/HCl gel and separated by SDS-PAGE electrophoresis. Then, the samples were transferred to a PVDF membrane (Milibo, Co., Ltd., Billyka, MA, USA) and blocked with 5% skimmed milk powder for 2 h. Diluted primary antibodies Bcl-2 (1:3000), Bax (1:10,000), caspase-3 (l:2000), p62 (1:1000), Beclin1 (1:1000), LC3 (1:2000), and β-actin (1:1000) were incubated overnight at 4 °C, followed by a horseradish peroxidase-conjugated goat anti-rabbit IgG secondary antibody (ProteinTech, China) for 2 h at room temperature. Then, immunoreactivity was developed with diaminobenzidine solution, and scanned and recorded by a gel imaging system (G:BOX Chemi XL1.4, Frederick, MD, USA).

Bax/Bcl-2 = assay: Western blot, Bax/Bcl-2 in HCT-15 cells; type: cell-based, human; settings: HCT-15, only at 5 μM, p < 0.05
Experimental: as §1

HCT-15 cells = assay: Cell cycle analysis by flow cytometry; type: cell-based, human; settings: HCT-15, 1.25, 2.5, and 5 μM, 24 h
Experimental: HCT-15 cells were cultured in six-well plates overnight at 37 °C. The cells were treated with 1.25, 2.5, 5 μM of 16 or DMSO and incubated for 24 h. Afterwards, the cells were harvested, and 70% ice cold ethanol was used to fix cells at 4 °C. Subsequently, the cells were centrifuged to remove the fixative solution, washed twice with PBS, and exposed to 500 μL of PI/RNase working solution (Keygen Biotech, Nanjing, China) at 4 °C for 30 min in the dark. The cell cycle distribution was analyzed by flow cytometry.

[1] = test system: human colon cancer cells (HCT-15); assay: MTT antiproliferative assay, HCT-15; type: cell-based
Experimental: Human lung cancer cell (A549,), human umbilical vein endothelial cells (HUVECs,), human colon cancer cell lines (HCT-15), human breast cancer cells (MCF-7), human liver cancer cells (HepG2), human pancreatic cancer cells (BxPC-3), and human hepatic cell line (L-02) were obtained from the Sichuan University. A549, HUVECs, and L-02 were cultured in DMEM medium (high glucose, HyClone, GE Healthcare, Sydney, Australia). Human colon cancer cell lines HCT-15, human pancreatic cancer cells […] BxPC-3 were cultured in RPMI-1640. Human breast cancer cells MCF-7 and human liver cancer cells HepG2 were cultured in MEM medium. All the mediums, including 10% fetal bovine serum (FBS, HyClone, GE Healthcare, Sydney, Australia) and 1% ampicillin/streptomycin, were used to culture the above cells at 37 °C in a humidified atmosphere (5% CO2 and 95% air).
The antiproliferative activity of the title compounds was determined using the MTT (3-(4,5-dimethylthiazol-2-yl)-2,5-diphenyltetrazolium bromide, Sigma-Aldrich, Saint Louis, MO, USA) assay on different cells. Cells lines were seeded into 96-well plates at a density of 2000 to 6000 cells/well. DMSO was used to dissolve the test compounds, and TET was used as a positive control. After 24 h, the test compounds were added at different concentrations (0.625, 1.25, 2.5, 5, 10, and 20 μM) and incubated at 37 °C for 72 h. MTT was added to each well at a final concentration of 0.5 mg/mL and incubated at 37 °C for 4 h. Then, 150 μL of DMSO was added to each well to dissolve the formazan crystals. The absorbance was measured at 570 nm by a microplate reader (ELX800UV, Bio-Tek, Windoski, VT, USA). All measurements were repeated at least three times under the same conditions. Graphpad Prism 8.0 was used to calculate the IC50 values.

SMILES: COc1cc(NC(=O)[C@@H]2CCCN2)c2cc1Oc1ccc(cc1)C[C@H]1c3cc(c(OC)cc3CCN1C)Oc1c(OC)c(OC)cc3c1[C@H](C2)N(C)CC3 [Compound 16, 14-N-(L-proline)-tetrandrine]
- Caspase-3 level (caspase-3): significantly decreased
- Ratio of Bax/Bcl-2 (Bax/Bcl-2): enhanced
- Effect on cell cycle redistribution (HCT-15 cells): no significant influence on cell cycle redistribution
- Improvement of antiproliferative activity compared with TET ([1]; HCT-15 cells, vs TET (IC50 = 6.12 μM)): higher than 10 fold
- IC50 ([1]; Homo sapiens, MTT, 72 h, HCT-15): 0.57 ± 0.03 µM
